Test results as given in patent publication US12459951B2, “Compounds that interact with RAS superfamily proteins for treatment of cancers, inflammatory diseases, rasopathies, and fibrotic disease” (SHY Therapeutics, LLC, priority 2022, dated 2025).

What was measured:
[1] = tested on: MiaPaca-2 (expressing KRAS G12C mutant); experiment: Proliferation Assay (Cell Viability Assay); assay type: cell-based; conditions: Homo sapiens, MIA PaCa-2; read-out: Proliferation in MiaPaca-2: IC50
Protocol: Protocol for Proliferation Assay
This assay is referred to as the “Proliferation Assay” or “Cell Viability Assay” throughout this application.
Cell lines: Human tumor-derived cell lines were purchased from American Type Culture Collection. Human tumor-derived pancreatic cancer cell line MiaPaca-2 (expressing KRAS G12C mutant) and Panc-1 (expressing KRas G12D mutant), and Human non-small cell lung cancer (NSCLC) cell line A549 (expressing KRas G12S mutant) were grown in complete DMEM-High Glucose medium. Human colon cancer cell line SW-620 (expressing KRas G12V mutant) was grown in RPMI 1640 medium. All cell lines were supplemented with penicillin (100 U/mL), streptomycin (100 μg/mL), and 10% heat-inactivated FBS at 37° C. in a humidified incubator with 5% CO2.
(§1) Method: Cells were plated at 2000 to 5000 cells/well density in 96-wells plate and cultured overnight. Small molecules to be tested were added to the cells in the final concentration of 10 μM in the presence of 0.3% DMSO and 10% FBS and incubated for 2-4 days at 37° C. in a humidified incubator with 5% CO2. For IC50 value determination, serial dilutions of compounds were added to cells under the same conditions.
Assay: At the end of the incubation period, cell viability was determined using the CellTiter 96® Aqueous One Solution Cell Proliferation Assay according to manufacturer specifications (Promega, Madison, WI). The percentage of small molecules inhibition of cellular proliferation was calculated from raw data.
Cell lines: these Human tumor-derived cell lines were purchased from American Type Culture Collection. Human tumor-derived pancreatic cancer cell line MiaPaca-2 (expressing KRAS G12C mutant) and Panc-1 (expressing KRas G12D mutant), and Human non-small cell lung cancer (NSCLC) cell line A549 (expressing KRas G12S mutant), and Human melanoma cell line A375 (wild type Kras) were grown in complete DMEM-High Glucose medium. Human tumor-derived pancreatic cancer cell lines SU86.86 (expressing KRas G12D mutant), BxPC3 (expressing wild type K-Ras), and Human non-small cell lung cancer (NSCLC) cell lines NCI-H441 (expressing KRas G12S mutant), NCI-H1975 (expressing wild type KRas), NCI-H358 (expressing KRas G12C mutant), NCI-H1299 (expressing NRas Q61H mutant), and Human colon cancer cell line SW-620 (expressing KRas G12V mutant), Human triple negative breast cancer cell line HCC-1806 (expressing wild type KRas), and Human tumor-derived multiple myeloma cell line MM.1R (expressing wild type KRAS), were grown in RPMI 1640 medium. Human tumor-derived breast cancer cell line BT-549 (expressing wild type KRAS) was grown in RPMI 1640 medium in the presence of 11.8U insulin. Human tumor-derived pancreatic cancer cell line HPAF-II (expressing KRas G12D mutant), Human triple negative breast cancer cell line BT-20 (expressing wild type KRas), and Human colon cancer cell line LS123 (expressing KRas G12S mutant), were grown in EMEM medium. Human tumor-derived pancreatic cancer cell line CF-PAC1 (expressing KRas G12V mutant) was frown in IMDM medium, and Human colon cancer cell line HT29 (expressing wild type KRas) was grown in McCoy's 5A medium. The colon cancer cell line GP2d (expressing KRas G12D mutant) was purchased from MilliporeSigma and grown in DMEM-High Glucose medium. All cell lines were supplemented with penicillin (100 U/mL), streptomycin (100 μg/mL), and 10% heat-inactivated FBS at 37° C. in a humidified incubator with 5% CO2.
as §1, with “that were” for “to be”, “FBS,” for “FBS”

[2] = tested on: Akt phosphorylation; experiment: Akt Phosphorylation Assay (western blot), Panc-1; assay type: cell-based, human; conditions: at 10 μM, * = activation
Protocol: Protocol for Western Akt Cell-Based Phosphorylation Assay
This assay is referred to as the “Akt Phosphorylation Assay” throughout this application.
Human tumor-derived pancreatic cancer cell line Panc-1 (expressing KRas G12D mutant) was purchased from American Type Culture Collection and grown in complete DMEM-High Glucose supplemented with penicillin (100 U/mL), streptomycin (100 μg/mL), and 10% heat-inactivated FBS at 37° C. in a humidified incubator with 5% CO2.
Method 1: Cells were plated at 350000 cells/well density in a 12-well plate, allowed 3 hours to adhere to the plate, then starved in the appropriate medium in the presence of 0.5% FBS overnight. The small molecules to be tested were added to the cells in the final concentration of 10 μM in the presence of 0.3% DMSO for 6 hours incubation at 37° C. Next, cells were stimulated with 1.5 ng/ml EGF for 15 minutes then cells were lysed with lysis buffer containing 1% Triton X-100, EDTA, and Halt™ Protease & Phosphatase Inhibitor Cocktail (Thermo Scientific). Protein concentration was assessed by BCA protein assay (Thermo Scientific). Phosphorylation level of Akt was determined by western blot.
Method 2: Cells were plated at 350000 cells/well density in a 12-well plate in 10% FBS. The next day small molecules to be tested were added to the cells in the final concentration of 10 μM in the presence of 0.3% DMSO for 6 hours incubation at 37° C. For IC50 value determination, serial dilutions of compounds were added to cells under the same conditions. Next, cells were lysed with lysis buffer containing 1% Triton X-100, EDTA, and Halt™ Protease & Phosphatase Inhibitor Cocktail (Thermo Scientific). Protein concentration was assessed by BCA protein assay (Thermo Scientific). Phosphorylation level of Akt was determined by western blot.
Western blot protocol: Equal amounts of protein (15-50 μg) were separated by SDS-PAGE and transferred to nitrocellulose membranes (Invitrogen by Thermo Fisher Scientific). The membrane was stained with Ponceau S Stain (Boston BioProducts) to verify uniform protein loading. Membranes were blocked with 10% milk and phosphorylation levels of Akt were assessed by incubating overnight at 4° C. with anti-phospho-Akt (Ser473) antibody (Cell Signaling) followed by HRP-conjugated secondary antibody (Jackson Immunoresearch, West Grove, PA). Bands were incubated in Amersham ECL Prime Western Blotting Detection Reagent (GE Healthcare) and visualized using the ChemiDoc MP imaging system (Bio-Rad).

| IC50 [1] | SMILES | % inh of Akt phosphorylation in Panc-1 [2] |
| --- | --- | --- |
| < 150 nM | CCOc1ccnc(Nc2nc(-c3nccn3C)nn3cc(-c4ccn(C5CC5)n4)c(C)c23)c1 [Compound 141, 6-(1-Cyclopropyl-1H-pyrazol-3-yl)-N-(4-ethoxypyridin-2-yl)-5-methyl-2-(1-methyl-1H-imidazol-2-yl)pyrrolo[2,1-f][1,2,4]triazin-4-amine] | A (1-25% inhibition) |
| > 1000 nM | CO[C@H]1C[C@H](Nc2nc(-c3nccn3C)nn3cc(-c4cccnc4)c(C)c23)C1 [Compound 151, N-((1r,3r)-3-Methoxycyclobutyl)-5-methyl-2-(1-methyl-1H-imidazol-2-yl)-6-(pyridin-3-yl)pyrrolo[2,1-f][1,2,4]triazin-4-amine] | C* (46-84% activation) |
| > 1000 nM | COCCO[C@H]1C[C@H](Nc2nc(-c3nccn3C)nn3cc(-c4ccnc(OC)c4)c(C)c23)C1 [Compound 161, N-((1r,3r)-3-(2-Methoxy-ethoxy)cyclo-butyl)-6-(2-methoxy-pyridin-4-yl)-5-methyl-2-(1-methyl-1H-imidazol-2-yl)pyrrolo[2,1-f][1,2,4]triazin-4-amine] | A* (1-25% activation) |
| 510 to 1000 nM | Cc1c(-c2ccn(C3CC3)n2)cn2nc(-c3nccn3C)nc(Nc3cc(OCCCO)ccn3)c12 [Compound 149, 3-((2-((6-(1-Cyclopropyl-1H-pyrazol-3-yl)-5-methyl-2-(1-methyl-1H-imidazol-2-yl)pyrrolo[2,1-f][1,2,4]triazin-4-yl)amino)pyridin-4-yl)oxy)propan-1-ol] | D* (85-100% activation) |
| < 150 nM | Cc1c(-c2ccn(C3CC3)n2)cn2nc(-c3nccn3C)nc(Nc3cc(OC4CC4)ccn3)c12 [Compound 142, N-(4-Cyclopropoxypyridin-2-yl)-6-(1-cyclopropyl-1H-pyrazol-3-yl)-5-methyl-2-(1-methyl-1H-imidazol-2-yl)pyrrolo[2,1-f][1,2,4]triazin-4-amine] | A (1-25% inhibition) |
| > 1000 nM | CO[C@H]1C[C@H](Nc2nc(-c3nccn3C)nn3cc(-c4ccncc4)c(C)c23)C1 [Compound 159, N-((1r,3r)-3-Methoxycyclobutyl)-5-methyl-2-(1-methyl-1H-imidazol-2-yl)-6-(pyridin-4-yl)pyrrolo[2,1-f][1,2,4]triazin-4-amine] | B (26-49% inhibition) |
| > 1000 nM | COc1cc(-c2cn3nc(-c4nccn4C)nc(N[C@H]4C[C@H](OC)C4)c3c2C)ccn1 [Compound 160, N-((1r,3r)-3-Methoxycyclobutyl)-6-(2-methoxypyridin-4-yl)-5-methyl-2-(1-methyl-1H-imidazol-2-yl)pyrrolo[2,1-f][1,2,4]triazin-4-amine] | B* (26-49% activation) |
| > 1000 nM | CO[C@H]1C[C@H](Nc2nc(-c3nccn3C)nn3cc(-c4cccnc4)c(-c4ccccn4)c23)C1 [Compound 168, N-((1r,3r)-3-Methoxycyclobutyl)-2-(1-methyl-1H-imidazol-2-yl)-5-(pyridin-2-yl)-6-(pyridin-3-yl)pyrrolo[2,1-f][1,2,4]triazin-4-amine] | 0 (0% inhibition) |

Continued, molecule first:

| SMILES | IC50 [1] | % inh of Akt phosphorylation in Panc-1 [2] |
| --- | --- | --- |
| Cc1c(-c2ccn(C(C)C)n2)cn2nc(-c3nccn3C)nc(Nc3cc(OCCN(C)C)ncn3)c12 [Compound 123, N-(6-(2-(Dimethylamino)ethoxy)pyrimidin-4-yl)-6-(1-isopropyl-1H-pyrazol-3-yl)-5-methyl-2-(1-methyl-1H-imidazol-2-yl)pyrrolo[2,1-f][1,2,4]triazin-4-amine] | < 150 nM | B* (26-49% activation) |
| Cc1c(-c2ccn(C)n2)cn2nc(-c3nccn3C)nc(Nc3nccn3C)c12 [Compound 106, 5-Methyl-N,2-bis(1-methyl-1H-imidazol-2-yl)-6-(1-methyl-1H-pyrazol-3-yl)pyrrolo[2,1-f][1,2,4]triazin-4-amine] | < 150 nM | D* (85-100% activation) |
| Cc1c(-c2ccn(C)n2)cn2nc(-c3nccn3C)nc(Nc3ncccn3)c12.Cl [Compound 115, 5-Methyl-2-(1-methyl-1H-imidazol-2-yl)-6-(1-methyl-1H-pyrazol-3-yl)-N-(pyrimidin-2-yl)pyrrolo[2,1-f][1,2,4]triazin-4-amine hydrochloride salt] | < 150 nM | D* (85-100% activation) |
| Cc1c(-c2ccn(C)n2)cn2nc(-c3nccn3C)nc(Cl)c12 [Compound 99, 4-Chloro-5-methyl-2-(1-methyl-1H-imidazol-2-yl)-6-(1-methyl-1H-pyrazol-3-yl)pyrrolo[2,1-f][1,2,4]triazine] | > 1000 nM | A* (1-25% activation) |
| COCCO[C@H]1C[C@H](Nc2nc(-c3nccn3C)nn3cc(-c4ccn(C)n4)c(C)c23)C1 [Compound 130, N-((1r,3r)-3-(2-Methoxyethoxy)cyclobutyl)-5-methyl-2-(1-methyl-1H-imidazol-2-yl)-6-(1-methyl-1H-pyrazol-3-yl)pyrrolo[2,1-f][1,2,4]triazin-4-amine] | > 1000 nM | D* (85-100% activation) |
| Cc1c(-c2ccn(C)n2)cn2nc(-c3nccn3C)nc(Nc3cc(OC(F)(F)F)ccn3)c12 [Compound 127, 5-Methyl-2-(1-methyl-1H-imidazol-2-yl)-6-(1-methyl-1H-pyrazol-3-yl)-N-(4-(trifluoromethoxy)pyridin-2-yl)pyrrolo[2,1-f][1,2,4]triazin-4-amine] | < 150 nM | D* (85-100% activation) |
